Data published in patent US20260034135A1, “USE OF N6-BENZYLAMINOPURINE AS AN APPETITE SUPPRESSANT” (THE GOVERNING COUNCIL OF THE UNIVERSITY OF TORONTO, priority 2022, published 2026).

Experiments:
mHypoE-38 cell line = experiment: Gene expression by qRT-PCR in mHypoE-38 hypothalamic cell line; type: cell-based, mouse; conditions: 100 μM BAP, 16 hr
Description: Hypothalamic neurons from embryonic and adult mice were previously immortalized to generate the clonal cell lines mHypoE-46, mHypoE-44, mHypoE-41, mHypoE-38, mHypoA-59, a FAC-sorted POMC/GFP mouse-derived cell line, mHypoA-POMC/GFP-2, and a mixed culture mHypoA-Bmal1-WT/F cell line (6, 13, 14). The mHypoE-46, mHypoE-44, and mHypoA-Bmal1-WT/F lines were cultured in DMEM containing 1000 mg/L glucose supplemented with 5% FBS and 1% pen/strep. The mHypoE-41, mHypoE-38, and mHypoA-59 cell lines were cultured in DMEM containing 4500 mg/L glucose supplemented with 2% FBS and 1% pen/strep. The mHypoA-POMC/GFP-2 line was cultured in DMEM containing 1000 mg/L glucose supplemented with 2% FBS and 1% pen/strep. […] Neuropeptide gene expression levels were determined by qRT-PCR.
For cell culture experiments, total RNA was isolated using PureLink RNA isolation kit (Thermofisher Scientific, Burlington, ON, Canada) according to the manufacturer's instruction with on column DNase step (PureLink DNAse kit) or DNase I treatment to remove genomic DNA. […] RNA quality and quantity were measured using Nanodrop 2000 and 500-1000 ng of complimentary DNA (cDNA) was synthesized with High Capacity cDNA Reverse Transcription kit (Applied biosystems, Thermofisher Scientific). […] Data was analyzed using […] and normalized to reference gene, either 60S ribosomal protein L7 (Rpl7) or Histone 3a (His).

Npy, Agrp, Pomc = experiment: Hypothalamic feeding neuropeptide expression in mice by qRT-PCR; type: in vivo, CD-1 mice
Description: All protocols using mice were approved by the University Animal Care Committee of the University of Toronto and were performed in accordance with the Canadian Council on Animal Care. Animal experiments were performed in three separate animal facilities: Medical Sciences Building (MSB), Centre for Cellular and Biomolecular Research (CCBR) and the Biological Sciences Facility (BSF) due to ongoing construction and housing changes. Facilities and dates are indicated in each experimental cohort. N6-benzylaminopurine (BAP; also called N6-benzyladenine) was obtained from Sigma (B3408, cell culture grade in powder form; CAS number 1214-39-7). Male and female CD-1 mice aged 6-7 weeks were acquired from Charles Rivers and acclimated on a chow diet for one week prior to experimentation. Mice were then weight-matched and placed on either a 60% high fat diet (HFD) or sucrose-matched control diet for 4 weeks (from Research Diets: 60% HFD D12492 and the sucrose-matched control diet […]). After 3 weeks on the diet, mice were acclimated for one week to the drinking apparatus, a 50 mL canonical tube with a drinking tube. After 4 weeks on the diet, the mice were again weight-matched and randomly assigned to either the control or BAP group. […] The average dosages achieved using this method are as follows: male HFD (200 mg/kg/day), male control (157 mg/kg/day), female HFD (189 mg/kg/day), and female control (129.9 mg/kg/day). The mice were exposed continuously to the solutions for a total of 33 days. One week prior to the end of the experiment (day 28), the mice were fasted for 4 hr and underwent intraperitoneal insulin tolerance testing (ITT). After 33 days, the mice were sacrificed, and their tissues were collected. RNA was isolated from the collected hypothalamic and used to quantify gene expression via qRT-PCR. […] All mice were kept on the 60% HFD throughout the exposure period. The male mice were fed their respective emulsion for 11, 14 or 27 days (as indicated), and the female mice were fed for 12 or 36 days (as indicated). On day 12, the one cohort of male mice underwent general anesthetic for the purpose of post-experiment Bruker scanning. The male mice were then fed their assigned emulsion 2 hr prior to sacrificing and tissue collection. […] Hypothalamic collected from the mice were then used to isolate RNA and quantify gene expression using quantitative reverse transcription polymerase chain reaction (qRT-PCR). For cell culture experiments, total RNA was isolated using PureLink RNA isolation kit (Thermofisher Scientific, Burlington, ON, Canada) according to the manufacturer's instruction with on column DNase step (PureLink DNAse kit) or DNase I treatment to remove genomic DNA. For mouse experiments, total RNA was isolated using mirVana PARIS RNA and native protein isolation kit (Thermofisher Scientific). […] Quantitative reverse transcription polymerase chain reaction (RT-qPCR) was performed with 12.5 ng of cDNA amplified with Platinum SYBR green qPCR SuperMix-UDG with ROX on an Applied Biosystems Prism 7900HT or PowerTrack Green Master Mix on an Applied Biosystems QuantStudio 5 and gene specific primers as per manufacturer's instructions (Table 1). Data was analyzed using […] and normalized to reference gene, either 60S ribosomal protein L7 (Rpl7) or Histone 3a (His).

[1] = female CD-1, 60% HFD, BAP in drinking water 33 days
[2] = male CD-1, HFD, BAP emulsion 11 days, fed 2 hr prior to sacrifice, cohort CCBR
[3] = male CD-1, HFD, BAP emulsion 14 days, cohort BSF
[4] = male CD-1, HFD, BAP emulsion, 28 days cohort BSF (27 days per FIG. 22)
[5] = male CD-1, sucrose-matched control diet, BAP in drinking water 33 days

## c1ccc(CNc2ncnc3nc[nH]c23)cc1 [BAP, N6-benzylaminopurine]
mHypoE-38 cell line
  Agrp mRNA expression: increased
  Npy mRNA expression: no effect
Npy, Agrp, Pomc; female CD-1, 60% HFD, 300 mg/kg BAP emulsion 36 days, cohort BSF
  hypothalamic Npy, Agrp, and Pomc expression: no changes
Npy, Agrp, Pomc; female CD-1, 60% HFD, BAP emulsion 12 days, fed 16 hr prior to sacrifice, cohort CCBR (data not shown)
  hypothalamic expression of feeding neuropeptides: no significant changes
Npy, Agrp, Pomc; [1]
  hypothalamic Agrp mRNA expression: no significant changes
  hypothalamic Npy mRNA expression: no significant changes
  hypothalamic Pomc mRNA expression: decreased
Npy, Agrp, Pomc; female CD-1, sucrose-matched control diet, BAP in drinking water 33 days, trend to increased Npy and AgRP
  hypothalamic feeding neuropeptide expression (Npy, Agrp, Pomc): do not have significant changes
Npy, Agrp, Pomc; male CD-1, 60% HFD, BAP in drinking water 33 days
  hypothalamic feeding-related neuropeptide expression (Npy, Agrp, Pomc) vs control: did not have any significant changes
Npy, Agrp, Pomc; [2]
  hypothalamic Agrp mRNA expression: significantly increased
  hypothalamic Npy mRNA expression: significantly increased
  hypothalamic Pomc mRNA expression: no significant changes
Npy, Agrp, Pomc; [3]
  hypothalamic Agrp expression: modest increase
  hypothalamic Npy expression: modest increase
  hypothalamic Pomc expression: no change
Npy, Agrp, Pomc; [4]
  hypothalamic Agrp expression: modest increase
  hypothalamic Npy expression: modest increase
  hypothalamic Pomc expression: no change
Npy, Agrp, Pomc; [5]
  hypothalamic AgRP expression vs control: significantly higher
  hypothalamic Npy expression vs control: significantly higher
  hypothalamic Pomc mRNA expression vs control: no change
